Inconclusive results and toxic doses are left out.
Test system: CD2F1 mice, L1210 leukemia ip, survival T/C
Assay: NCI In Vivo Anticancer Drug Screen. Data for tumor model L1210 Leukemia (intraperitoneal) in CD2F1 (CDF1) mice
Conditions: higher = longer survival
Summary of the method: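 Vehicle-treated tumor-bearing mice served as controls (C) for compound-treated mice (T). Reported figure is T divided by C.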

[1] = endpoint: mean survival time, dose: 100.0 mg/kg/injection, schedule: Q01DX009 (ip), vehicle: saline with Tween-80
[2] = endpoint: mean survival time, dose: 200.0 mg/kg/injection, schedule: Q01DX009 (ip), vehicle: saline with Tween-80
[3] = endpoint: mean survival time, dose: 400.0 mg/kg/injection, schedule: Q01DX009 (ip), vehicle: saline with Tween-80
[4] = endpoint: mean survival time, dose: 100.0 mg/kg/injection, schedule: Q04DX002 (ip), vehicle: saline with Tween-80
[5] = endpoint: mean survival time, dose: 200.0 mg/kg/injection, schedule: Q04DX002 (ip), vehicle: saline with Tween-80
[6] = endpoint: mean survival time, dose: 400.0 mg/kg/injection, schedule: Q04DX002 (ip), vehicle: saline with Tween-80
[7] = endpoint: mean survival time, dose: 6.25 mg/kg/injection, schedule: Q01DX009 (ip), vehicle: saline with Tween-80
[8] = endpoint: mean survival time, dose: 12.5 mg/kg/injection, schedule: Q01DX009 (ip), vehicle: saline with Tween-80
[9] = endpoint: mean survival time, dose: 100.0 mg/kg/injection, schedule: Q04DX003 (ip), vehicle: Klucel (hydroxypropylcellulose) (HPC)
[10] = endpoint: mean survival time, dose: 200.0 mg/kg/injection, schedule: Q04DX003 (ip), vehicle: Klucel (hydroxypropylcellulose) (HPC)
[11] = endpoint: mean survival time, dose: 400.0 mg/kg/injection, schedule: Q04DX003 (ip), vehicle: Klucel (hydroxypropylcellulose) (HPC)
[12] = endpoint: mean survival time, dose: 100.0 mg/kg/injection, schedule: Q04DX003 (ip), vehicle: saline with Tween-80
[13] = endpoint: mean survival time, dose: 200.0 mg/kg/injection, schedule: Q04DX003 (ip), vehicle: saline with Tween-80
[14] = endpoint: mean survival time, dose: 400.0 mg/kg/injection, schedule: Q04DX003 (ip), vehicle: saline with Tween-80
[15] = endpoint: mean survival time, dose: 100.0 mg/kg/injection, schedule: Q01DX001 (ip), vehicle: saline
[16] = endpoint: mean survival time, dose: 200.0 mg/kg/injection, schedule: Q01DX001 (ip), vehicle: saline
[17] = endpoint: mean survival time, dose: 400.0 mg/kg/injection, schedule: Q01DX001 (ip), vehicle: saline

SMILES: CCCCCCC(=O)CC(SCC)c1ccccc1Cl (stereo not given)
- T/C (endpoint: median survival time, dose: 25.0 mg/kg/injection, schedule: Q01DX009 (ip), vehicle: saline with Tween-80): 100 % of control
- T/C (endpoint: median survival time, dose: 50.0 mg/kg/injection, schedule: Q01DX009 (ip), vehicle: saline with Tween-80): 104 % of control
- T/C (endpoint: median survival time, dose: 100.0 mg/kg/injection, schedule: Q01DX009 (ip), vehicle: saline with Tween-80): 100 % of control
- T/C (endpoint: median survival time, dose: 200.0 mg/kg/injection, schedule: Q01DX009 (ip), vehicle: saline with Tween-80): 97 % of control
- T/C (endpoint: median survival time, dose: 400.0 mg/kg/injection, schedule: Q01DX009 (ip), vehicle: saline with Tween-80): 98 % of control

SMILES: O=S(=O)(F)c1cccc(Cl)c1C[P+](c1ccccc1)(c1ccccc1)c1ccccc1
- T/C (endpoint: mean survival time, dose: 12.5 mg/kg/injection, schedule: Q01DX001 (ip), vehicle: Klucel (hydroxypropylcellulose) (HPC)): 103 % of control
- T/C (endpoint: mean survival time, dose: 25.0 mg/kg/injection, schedule: Q01DX001 (ip), vehicle: Klucel (hydroxypropylcellulose) (HPC)): 115 % of control

SMILES: Cc1ccc(S(=O)(=O)OCC(O)C(O)C(O)C(O)C=O)cc1 (stereo not given) (tested in a mixture with another compound)
- T/C [1]: 103 % of control
- T/C [2]: 95 % of control
- T/C [3]: 112 % of control

SMILES: [CH3][Sb]([CH3])([CH3])([O]C(=O)C(Cl)(Cl)Cl)[O]C(=O)C(Cl)(Cl)Cl
- T/C [4]: 98 % of control
- T/C [5]: 107 % of control
- T/C [6]: 103 % of control

SMILES: O=NN(CCCl)C(=O)Nc1ccc(CCO)cc1
- T/C (endpoint: mean survival time, dose: 0.31 mg/kg/injection, schedule: Q01DX001 (ip), vehicle: other): 103 % of control
- T/C (endpoint: mean survival time, dose: 0.62 mg/kg/injection, schedule: Q01DX001 (ip), vehicle: other): 97 % of control
- T/C (endpoint: mean survival time, dose: 1.25 mg/kg/injection, schedule: Q01DX001 (ip), vehicle: other): 105 % of control
- T/C (endpoint: mean survival time, dose: 2.03 mg/kg/injection, schedule: Q01DX009 (ip), vehicle: acetone): 205 % of control
- T/C (endpoint: mean survival time, dose: 2.5 mg/kg/injection, schedule: Q01DX001 (ip), vehicle: other): 120 % of control
- T/C (endpoint: mean survival time, dose: 3.08 mg/kg/injection, schedule: Q01DX009 (ip), vehicle: saline with Tween-80): 203 % of control
- T/C (endpoint: mean survival time, dose: 4.62 mg/kg/injection, schedule: Q01DX009 (ip), vehicle: saline with Tween-80): 300 % of control
- T/C (endpoint: mean survival time, dose: 9.75 mg/kg/injection, schedule: Q01DX001 (ip), vehicle: other): 277 % of control
- T/C (endpoint: mean survival time, dose: 19.5 mg/kg/injection, schedule: Q01DX001 (ip), vehicle: other): 361 % of control
- T/C (endpoint: mean survival time, dose: 39.0 mg/kg/injection, schedule: Q01DX001 (ip), vehicle: other): 98 % of control
- T/C (endpoint: mean survival time, dose: 100.0 mg/kg/injection, schedule: Q01DX001 (ip), vehicle: carboxymethylcellulose (CMC)): 172 % of control
- T/C (endpoint: mean survival time, dose: 200.0 mg/kg/injection, schedule: Q01DX001 (ip), vehicle: carboxymethylcellulose (CMC)): 170 % of control
- T/C (endpoint: mean survival time, dose: 400.0 mg/kg/injection, schedule: Q01DX001 (ip), vehicle: carboxymethylcellulose (CMC)): 307 % of control

SMILES: O=CCC1CCCCC1
- T/C (endpoint: mean survival time, dose: 50.0 mg/kg/injection, schedule: Q01DX009 (ip), vehicle: saline with Tween-80): 105 % of control
- T/C [1]: 94 % of control
- T/C [2]: 102 % of control

SMILES: COc1ccc(COC(=O)Nc2ccccc2[N+](=O)[O-])cc1
- T/C [4]: 91 % of control
- T/C [5]: 87 % of control
- T/C [6]: 91 % of control

SMILES: O=C1OC(=O)[C@H]2[C@@H]1[C@H]1C=C[C@@H]2OC1=O
- T/C (endpoint: median survival time, dose: 12.5 mg/kg/injection, schedule: Q01DX009 (ip), vehicle: saline): 98 % of control
- T/C (endpoint: median survival time, dose: 25.0 mg/kg/injection, schedule: Q01DX009 (ip), vehicle: saline): 104 % of control
- T/C (endpoint: median survival time, dose: 50.0 mg/kg/injection, schedule: Q01DX009 (ip), vehicle: saline): 104 % of control
- T/C (endpoint: median survival time, dose: 100.0 mg/kg/injection, schedule: Q01DX009 (ip), vehicle: saline): 104 % of control
- T/C (endpoint: median survival time, dose: 200.0 mg/kg/injection, schedule: Q01DX009 (ip), vehicle: saline): 96 % of control

SMILES: C[n+]1c(/C=C/c2ccc([N+](=O)[O-])cc2)ccc2ccccc21
- T/C [7]: 98 % of control
- T/C [8]: 102 % of control
- T/C (endpoint: mean survival time, dose: 25.0 mg/kg/injection, schedule: Q04DX003 (ip), vehicle: saline with Tween-80): 96 % of control

SMILES: CCCSCC(CSCCC)(CSCCC)CSCCC
- T/C (endpoint: mean survival time, dose: 100.0 mg/kg/injection, schedule: Q01DX001 (ip), vehicle: saline with Tween-80): 107 % of control
- T/C (endpoint: mean survival time, dose: 200.0 mg/kg/injection, schedule: Q01DX001 (ip), vehicle: saline with Tween-80): 111 % of control
- T/C (endpoint: mean survival time, dose: 400.0 mg/kg/injection, schedule: Q01DX001 (ip), vehicle: saline with Tween-80): 101 % of control

SMILES: CC(=O)Nc1c(C#N)c(C#N)nn1C
- T/C (endpoint: mean survival time, dose: 50.0 mg/kg/injection, schedule: Q04DX002 (ip), vehicle: saline with Tween-80): 98 % of control
- T/C [4]: 106 % of control
- T/C [5]: 102 % of control

SMILES: ClCCCCC(Cl)(Cl)Cl
- T/C (endpoint: mean survival time, dose: 100.0 mg/kg/injection, schedule: Q01DX001 (ip), vehicle: Klucel (hydroxypropylcellulose) (HPC)): 101 % of control
- T/C (endpoint: mean survival time, dose: 200.0 mg/kg/injection, schedule: Q01DX001 (ip), vehicle: Klucel (hydroxypropylcellulose) (HPC)): 98 % of control
- T/C (endpoint: mean survival time, dose: 400.0 mg/kg/injection, schedule: Q01DX001 (ip), vehicle: Klucel (hydroxypropylcellulose) (HPC)): 93 % of control

SMILES: COC1OC2COC(c3ccccc3)OC2C(O)C1O (stereo not given)
- T/C [9]: 105 % of control
- T/C [10]: 95 % of control
- T/C [11]: 95 % of control

SMILES: CN1CCCN(C)C1c1ccc(Cl)cc1
- T/C [7]: 98 % of control
- T/C [8]: 100 % of control
- T/C (endpoint: mean survival time, dose: 25.0 mg/kg/injection, schedule: Q01DX009 (ip), vehicle: saline with Tween-80): 94 % of control

SMILES: CC(=O)Nc1nc(C)c(S(=O)(=O)O)s1
- T/C (endpoint: mean survival time, dose: 75.0 mg/kg/injection, schedule: Q01DX001 (ip), vehicle: saline): 101 % of control
- T/C (endpoint: mean survival time, dose: 150.0 mg/kg/injection, schedule: Q01DX001 (ip), vehicle: saline): 93 % of control
- T/C (endpoint: mean survival time, dose: 300.0 mg/kg/injection, schedule: Q01DX001 (ip), vehicle: saline): 90 % of control

SMILES: CS(=O)(=O)OCCOS(C)(=O)=O
- T/C [1]: 109 % of control
- T/C [12]: 104 % of control
- T/C [2]: 116 % of control
- T/C [13]: 115 % of control
- T/C [14]: 111 % of control

SMILES: CCC1CN2CCC1CC2C(O)c1cc[n+]([O-])c2ccc(OC)cc12 (stereo not given)
- T/C [9]: 98 % of control
- T/C [10]: 102 % of control
- T/C [11]: 102 % of control

SMILES: CCCCCCCCCCCCCCCCCCNC(=O)C[N+](C)(C)Cc1ccccc1
- T/C (endpoint: mean survival time, dose: 6.25 mg/kg/injection, schedule: Q04DX003 (ip), vehicle: saline with Tween-80): 103 % of control
- T/C (endpoint: mean survival time, dose: 12.5 mg/kg/injection, schedule: Q04DX003 (ip), vehicle: saline with Tween-80): 97 % of control

SMILES: CC1CC(C)(C)NC(CC2CCCCC2O)O1 (stereo not given)
- T/C [12]: 94 % of control

SMILES: CC1(C(=O)O)OCCO1
- T/C (endpoint: mean survival time, dose: 100.0 mg/kg/injection, schedule: Q04DX003 (ip), vehicle: saline): 97 % of control
- T/C (endpoint: mean survival time, dose: 200.0 mg/kg/injection, schedule: Q04DX003 (ip), vehicle: saline): 103 % of control
- T/C (endpoint: mean survival time, dose: 400.0 mg/kg/injection, schedule: Q04DX003 (ip), vehicle: saline): 96 % of control

SMILES: O=C(Oc1cccc(OC(=O)c2ccccc2)c1)c1ccccc1
- T/C [1]: 100 % of control
- T/C [2]: 97 % of control
- T/C [3]: 95 % of control

SMILES: CC(=O)OCc1cccnc1
- T/C (endpoint: mean survival time, dose: 100.0 mg/kg/injection, schedule: Q01DX009 (ip), vehicle: saline): 96 % of control
- T/C (endpoint: mean survival time, dose: 200.0 mg/kg/injection, schedule: Q01DX009 (ip), vehicle: saline): 94 % of control
- T/C (endpoint: mean survival time, dose: 400.0 mg/kg/injection, schedule: Q01DX009 (ip), vehicle: saline): 86 % of control

SMILES: C/C(CC(=O)Nc1ccccn1)=N\c1ccccn1
- T/C [12]: 96 % of control
- T/C [13]: 94 % of control

SMILES: CCCC1([N+](=O)[O-])c2ccccc2-c2ccc([N+](=O)[O-])cc21 (stereo not given)
- T/C [15]: 98 % of control
- T/C [16]: 96 % of control
- T/C [17]: 92 % of control

SMILES: CC1=C(C)C2(C)C1(C)C1(C)C(C)=C(C)C21C (stereo not given)
- T/C [12]: 96 % of control
- T/C [13]: 93 % of control
- T/C [14]: 89 % of control

SMILES: CCCN(CCC)S(=O)(=O)c1ccc(NC(=O)OC2CCCCCCC2)cc1
- T/C [15]: 92 % of control
- T/C [16]: 98 % of control
- T/C [17]: 101 % of control

SMILES: CCCCCCC(=C/c1ccccc1)/C=N/NC(=O)c1ccc[n+](C)c1
- T/C [12]: 98 % of control

From PubChem BioAssay AID256 (DTP/NCI, 2004)
